Columns and labels:
[1] = system: TG2 activation in WI-38 monolayers; assay: Thioredoxin-induced TG2 activation in WI-38 monolayers, 5BP incorporation ELISA; assay type: cell-based, human
Description: (§1) FIG. 7. Dose dependence of TG2 activation in response to recombinant human thioredoxin treatments of T84 and WI-38 monolayers measured in a quantitative enzyme linked immunosorbent type assay. Cellular monolayers were treated for 3 hrs at 0-10 μM thioredoxin with or without TG2 inhibition using 25 μM ERW1041E or with or without using 0-50 μM thioredoxin inhibitor PX-12. TG2 activation was quantified by the amount of 5BP crosslinked to native proteins in the extracellular matrix of cultured monolayers as measured by tetramethylbenzidine turnover via streptavidin-HRP labeling. (A) and (B) Illustrate the dependence of 5BP incorporation on thioredoxin exposure concentration in T84 and WI-38 cells, respectively. […] (C) and (D) Illustrate the dependence of 5BP incorporation on the ability of thioredoxin to activate TG2. TG2 activation was highest for control experiments with 0 μM PX-12. The amount of PX-12 required to reduce the 5BP incorporation in half at saturating concentrations of 3 μM thioredoxin in T84 and WI-38 cultures was 11 μM and 5 μM PX-12, respectively. […] Data reported as mean+/−standard deviation.
(§2) To test whether recombinant human thioredoxin could directly activate TG2 in cell culture, we used T84 and WI-38 monolayers in similar assays as described herein. T84 and WI-38 cells were grown into mature monolayers at which point varying amounts of pre-reduced thioredoxin were added to the culture medium along with 5BP and/or small molecule inhibitors, such as the TG2 inhibitor, ERW1041E, or the thioredoxin inhibitor, PX-12. 5BP incorporated into the extracellular matrix of cultured monolayers via activated TG2 was then quantified.

[2] = Reactivity of disulfide inhibitors towards dithiothreitol
[3] = cited from earlier work
human thioredoxin = molecular target: T1, human thioredoxin (Homo sapiens, UniProt P10599); assay: Inhibition of human thioredoxin by disulfide analogs of PX-12 (kinh/Ki); assay type: biochemical
T1 construct: made in house; host or cells: E. coli
T1 sequence (P10599 1-105): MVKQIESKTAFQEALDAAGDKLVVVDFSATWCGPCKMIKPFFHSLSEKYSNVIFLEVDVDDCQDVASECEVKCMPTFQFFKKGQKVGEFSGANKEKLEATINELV

[4] = system: TG2 activation in T84 monolayers; assay: Thioredoxin-induced TG2 activation in T84 monolayers, 5BP incorporation ELISA; assay type: cell-based, human
Description: as §1, §2

Trx = molecular target: T2, Trx (Homo sapiens, UniProt P10599); assay: Cell-free assay for Trx-mediated activation of oxidized TG2; assay type: biochemical; conditions: dose-dependent; 100 μM PX-12
T2 construct: made in house; host or cells: E. coli (Trx)
T2 sequence (P10599 1-105): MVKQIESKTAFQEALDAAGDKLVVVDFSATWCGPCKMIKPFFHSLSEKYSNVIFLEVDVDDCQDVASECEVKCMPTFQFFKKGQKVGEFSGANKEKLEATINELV
Description: (§3) To test our hypothesis, we measured the kinetics of Trx-mediated activation of oxidized TG2. Reduced forms of Trx from E. coli and human were prepared by overexpression in and purification from recombinant E. coli. Dithiothreitol (DTT) was used as a reference small molecule reducing agent. […] We therefore quantified the specificity of human Trx for human oxidized TG2 by measuring the Michaelis-Menten parameters for Trx-mediated reduction of oxidized TG2. Insulin, a well-characterized extracellular substrate of Trx, was used as a reference, and human thioredoxin reductase was used as a catalyst to achieve turnover under steady-state conditions. […] Based on these parameters, one can estimate that as little as 2.5 nM Trx in the extracellular matrix should be able to activate 10% of the local oxidized TG2 within 30 min.
The small molecule PX-12 (1,1-methylpropyl 2-imidazolyl disulfide) inhibits Trx by oxidizing its active site Cys.

Insulin = assay: Kinetics of Trx-mediated reduction of insulin (reference substrate); assay type: biochemical; conditions: human thioredoxin reductase as catalyst, steady state
Description: as §3

[5] = Homo sapiens, saturating 3 μM thioredoxin, read-out: amount of PX-12 required to reduce the 5BP incorporation in half

Row | Trx kinh/Ki (human thioredoxin; human thioredoxin, bimolecular parameter estimating potency) | Trx/DTT (human thioredoxin; ratio of reactivity towards Trx relative to DTT (selectivity)) | IC50 [4, 5] | Trx-mediated activation of oxidized TG2 (Trx) | Molecule | IC50 [1, 5] | 5BP incorporation in response to thioredoxin ([1]; PX-12 0-50 μM) | DTT k [2] | adverse effects in humans ([3]; high doses administered to humans) | toxicity due to the 2-butanethiol leaving group ([3]; previous human clinical studies) | 5BP incorporation in response to thioredoxin ([4]; PX-12 0-50 μM) | Km (Insulin)
1 | 2670 M⁻¹ s⁻¹ | 15 | 11 µM | complete inactivation | CCC(C)SSc1ncc[nH]1 (centres unmarked) [compound 1, 1-methylpropyl 2-imidazolyl disulfide] | 5 µM | quantitatively reduced | 180 M⁻¹ s⁻¹ | without any serious adverse effects | dose-limiting toxicity | quantitatively reduced | –
2 | – | – | – | – | recombinant human Trx: reduced human thioredoxin, overexpressed in and purified from recombinant E. coli (protein, UniProt P10599 2-105, looked up, reduced, reduced human thioredoxin, overexpressed in and purified from recombinant E. coli) Thioredoxin: VKQIESKTAFQEALDAAGDKLVVVDFSATWCGPCKMIKPFFHSLSEKYSNVIFLEVDVDDCQDVASECEVKCMPTFQFFKKGQKVGEFSGANKEKLEATINELV | – | – | – | – | – | – | 30 µM
